# Data published in patent US20090176773A1, “Non-Peptidic Inhibitors of AKAP/PKA Interaction” (FORSCHUNGSVERBUND BERLIN E.V., priority 2005, published 2009).
# “Also recorded” adds a separate entry of the source. Read-outs that look alike come from different tables or passages of the source.
# Columns and labels:
# [1] = target: AKAP18delta-RIIalpha interaction (GST-AKAP18delta binding to plate-bound PKA-RIIalpha) (Rattus norvegicus, UniProt P12368+Q6JP77); experiment: ELISA for quantitative detection of protein-protein binding between PKA-RIIalpha and GST-AKAP18delta (library screening, validation, IC50); settings: for Concentration dependence of the inhibitory effect in validation (dilution series): FIG. 15, 50 nM GST-AKAP18delta
# Source text: (§1) ELISA is a method wherein an antigen is detected with a specific antibody. Detection proceeds via an enzyme linked covalently with one of the binding partners, which enzyme catalyzes chromogen conversion.
# (§2) Because one of the two binding partners is immobilized, removal of unbound antibodies or antigens is very easy. Detection proceeds via observing the intensity (I) of chemiluminescence using a photomultiplier in a special reading device (ELISA reader). The output of the measured values is in relative light units (RLU).
# (§3) In the present case, the point was to investigate whether binding of one protein (PKA) to another (AKAP18delta-GST) would be inhibited by the presence of small organic molecules. A sandwich ELISA was therefore developed wherein the RIIalpha PKA subunit, to which AKAP proteins bind, was bound on 384-well microtiter plates (MTP).
# (§4) The white color improves detection by reflection of the chemiluminescence being formed and simultaneously prevents illumination of neighboring wells. Free binding sites were blocked after binding (see below), and the second GST-AKAP18delta protein was added to […]. Subsequently, bound GST-AKAP18delta was quantified via antibodies and chemiluminescence. The principle of ELISA is illustrated in FIG. 4.
# (§5) PBS (phosphate-buffered saline, pH 7.4) was used as buffer system to maintain a physiological pH value for the proteins used. The buffer was added with a mix of protease inhibitors and PMSF as non-specific protease inhibitor to delay protein degradation. In addition, DTT was employed to protect the proteins from oxidation.
# (§6) The blocking solution additionally included 0.3% skim milk powder to saturate MTP non-specific binding sites with milk proteins included therein.
# (§7) To adapt the binding curves to the measured values (see results), the one-site binding model was used as a basis, which model applies to binding of GST-AKAP18delta to RIIalpha. The corresponding formula is
# (§8) The measured values for IC50 calculation were adapted to the one-site competition model. It was established that the bottom asymptote should be greater than 0.0 to rule out faulty adaptations with negative binding values. The formula used is
# (§9) The FMP20000 substance library was used for screening, i.e., systematic, partially automated search for potential inhibitors of AKAP18delta-RIIalpha binding. […] The substances of the library had been selected according to specific criteria which also apply to previously known pharmacological active substances. Said criteria also include Lipinski's Rule (cf. discussion). To prepare an MTP for screening, each of 380 wells was filled with 20 μl of RIIalpha solution with a concentration of 0.75 ng/μl (in binding buffer), using an electronically controlled 24-channel pipette (Eppendorf). […] Following centrifugation of the MTPs (1 min at 2500×g), the MTPs were incubated at room temperature for at least 1 h. After removing the protein solution by tapping on a paper stack, non-specific binding sites were blocked with 100 μl of blocking solution/well for at least 1 h at room temperature.
# (§10) After completion of the washing operation, solution residues possibly still present were tapped off on a paper stack.
# (§11) In the next step, the MTPs were prepared for automated pipetting of the low-molecular weight substances. Each well was supplied with 10 μl of blocking solution or controls pipetted in accordance with the pipetting scheme (Table 1.2). […] The plates were briefly centrifuged.
# (§12) Each of the control columns 1 and 24 received 0.5 μl of DMSO, so that the controls were added with the same amount of DMSO as the other samples.
# (§13) Following centrifugation of the screening MTPs, AKAP18delta-GST (8 ng/μl in blocking solution) was added in accordance with the pipetting scheme (Table 2.2), centrifuged, and incubated for at least 30 min at room temperature.
# [2] = target: T1, AKAP18delta-RIIalpha interaction (GST-AKAP18delta binding to plate-bound PKA-RIIalpha) (UniProt P13861+Q6JP77); experiment: as above; settings: increasing peptide concentrations, FIG. 11
# T1 construct: made in house; host or cells: E. coli BL21(DE3), pGEX-4T3 vector (GST-AKAP18delta only)
# Source text: as §1, §2, §3, §4, §5, §6, §7, §8, §9, §10, §11, §12, §13
# [3] = tested on: vasopressin (AVP)-dependent redistribution of the aquaporin-2 (AQP2) water channel in renal principal cells (IMCD cells); experiment: AVP-induced redistribution of AQP2 in primarily cultured IMCD cells (immunofluorescence, laser scanning microscope); assay type: cell-based, rat; settings: FIG. 18 and 21
# Experimental: Initially, collecting duct cells from the inner medulla of rat kidneys (IMCD cells) can be stimulated with AVP in the presence or absence of the substances so as to stimulate AQP2 translocation. Thereafter, immunofluorescence staining can be performed, wherein the cells—following incubation—are fixed and made permeable. Using antibodies coupled to fluorescent dyes, the intracellular localization of AQP2 can subsequently be determined under a fluorescence microscope. In this way it is possible to investigate the influence of the substances on the presumably AKAP18delta-dependent translocation of AQP2.
# Inhibition of the vasopressin (AVP)-dependent redistribution of the aquaporin-2 (AQP2) water channel in renal principal cells by the substances specified (see Table B; concentrations of inhibitors in μM). Primarily cultured principal cells from the inner medulla of rat kidneys (IMCD cells) represent a model for the AVP-induced translocation of AQP2. Said redistribution is the molecular basis of AVP-induced water reabsorption in the kidneys. AQP2 was detected by means of a specific antiserum and Cy3-labelled secondary antibodies in untreated cells (control) and in cells treated with AVP or substances, using a laser scanning microscope (Tamma et al., 2003; Henn et al., 2004).
# Effect of the low-molecular weight substances 18882, 990 and 990 derivatives SM61 and SM65 on AVP-induced redistribution of AQP2 in IMCD cells (see FIG. 18). The structures and chemical properties of the substances are illustrated in Tables A, B and C (concentrations of inhibitors in μM). AQP2 was detected by means of a specific antiserum and Cy3-labelled secondary antibodies in untreated cells (control) and in cells treated with AVP or substances, using a laser scanning microscope (Tamma et al., 2003; Henn et al., 2004). […] In contrast, the substances 18882 and the 990 derivative SM65 have no influence on AVP-induced AQP2 redistribution at the concentrations used.
# Sequence of AKAP18delta-RIIalpha interaction (GST-AKAP18delta binding to plate-bound PKA-RIIalpha) (Rattus norvegicus, UniProt P12368+Q6JP77) (P12368 2-401): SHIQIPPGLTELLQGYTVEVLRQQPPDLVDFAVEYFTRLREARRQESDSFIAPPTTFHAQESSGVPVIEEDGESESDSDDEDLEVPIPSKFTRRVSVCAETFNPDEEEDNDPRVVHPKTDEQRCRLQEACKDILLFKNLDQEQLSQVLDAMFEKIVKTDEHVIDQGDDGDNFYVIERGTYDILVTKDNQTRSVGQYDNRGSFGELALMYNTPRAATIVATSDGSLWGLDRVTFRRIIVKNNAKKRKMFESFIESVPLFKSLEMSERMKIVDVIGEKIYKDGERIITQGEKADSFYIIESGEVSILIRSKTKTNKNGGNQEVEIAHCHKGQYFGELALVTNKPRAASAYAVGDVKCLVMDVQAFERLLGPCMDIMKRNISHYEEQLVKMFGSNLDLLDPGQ
# Sequence of AKAP18delta-RIIalpha interaction (GST-AKAP18delta binding to plate-bound PKA-RIIalpha) (Rattus norvegicus, UniProt P12368+Q6JP77) (Q6JP77 whole entry): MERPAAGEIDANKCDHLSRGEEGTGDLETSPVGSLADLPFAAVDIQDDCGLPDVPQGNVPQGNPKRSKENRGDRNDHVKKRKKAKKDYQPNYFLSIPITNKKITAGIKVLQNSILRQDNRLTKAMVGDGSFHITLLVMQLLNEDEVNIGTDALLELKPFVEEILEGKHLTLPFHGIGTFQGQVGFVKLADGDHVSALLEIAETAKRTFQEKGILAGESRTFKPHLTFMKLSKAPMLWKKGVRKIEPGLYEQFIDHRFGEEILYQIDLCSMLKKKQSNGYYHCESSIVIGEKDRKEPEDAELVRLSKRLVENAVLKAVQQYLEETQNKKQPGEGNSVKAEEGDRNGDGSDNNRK
# T1 sequence (Q6JP77 whole entry): as above
# T1 sequence (P13861 whole entry): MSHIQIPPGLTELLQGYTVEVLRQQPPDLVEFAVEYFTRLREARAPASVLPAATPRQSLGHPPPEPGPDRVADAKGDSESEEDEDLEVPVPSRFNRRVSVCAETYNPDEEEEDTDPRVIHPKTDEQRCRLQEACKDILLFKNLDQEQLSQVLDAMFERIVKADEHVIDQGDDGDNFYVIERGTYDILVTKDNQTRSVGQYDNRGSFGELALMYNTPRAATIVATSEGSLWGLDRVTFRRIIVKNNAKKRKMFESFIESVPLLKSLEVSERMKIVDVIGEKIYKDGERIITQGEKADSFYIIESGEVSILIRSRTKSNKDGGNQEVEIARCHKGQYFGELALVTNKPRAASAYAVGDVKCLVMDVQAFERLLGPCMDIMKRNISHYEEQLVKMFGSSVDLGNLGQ
Structure (SMILES),Ratio IC50 (comp./990) in Screening no. 3 [1],Ratio IC50 (comp./990) in Screening no. 2 [1],other results
COc1ccc(CSC(=N)N)cc1Br [Compound 2348],–,–,Concentration dependence of the inhibitory effect in validation (dilution series) [1]: non-active
"CC(C)C[C@H](NC(=O)[C@H](CCCNC(=N)N)NC(=O)[C@@H](NC(=O)[C@H](CC(C)C)NC(=O)[C@H](CCC(=O)O)NC(=O)[C@H](C)NC(=O)[C@H](CC(=O)O)NC(=O)[C@H](CCC(=O)O)NC(=O)[C@@H]1CCCN1)C(C)C)C(=O)N[C@@H](CO)C(=O)N[C@@H](CCCCN)C(=O)N[C@@H](CCCNC(=N)N)C(=O)N[C@@H](CC(C)C)C(=O)N[C@H](C(=O)N[C@@H](CCC(=O)O)C(=O)N[C@@H](CC(N)=O)C(=O)N[C@@H](C)C(=O)N[C@H](C(=O)N[C@@H](CCC(=O)O)C(=O)N[C@@H](CCCCN)C(=O)N[C@@H](C)C(=O)N[C@H](C(=O)N[C@@H](CCC(N)=O)C(=O)N[C@@H](CCC(N)=O)C(=O)N[C@@H](Cc1ccc(O)cc1)C(N)=O)C(C)C)C(C)C)C(C)C [Compound L314E, reference compound]",–,–,Concentration dependence of the inhibitory effect in validation (dilution series) [1]: inhibition of binding in a concentration-dependent fashion; Inhibition of GST-AKAP18delta binding to RIIalpha by peptides [2]: stronger inhibition of binding; also recorded: competitive inhibition of binding
CC(C)(C)/N=C(\NCc1ccccc1)SCc1cccc2ccccc12 [JG20],0.74,–,–
CC(C)(C)/N=C(\NC1=NCCS1)SCc1cccc2ccccc12 [JG21],1.97,–,–
C/N=C(\NCc1cccc2ccccc12)SCc1cccc2ccccc12 [JG23],–,–,"IC50 in Screening no. 3 ([1]; Table C, screening no. 3): bad"
c1ccc2c(CN/C(=N\C3CCCCC3)SCc3cccc4ccccc34)cccc2c1 [JG25],0.26,–,–
CC(C)/N=C(\NCc1cccc2ccccc12)SCc1cccc2ccccc12 [JG26],0.87,–,–
CC(C)(C)/N=C(\NCc1cccc2ccccc12)SCc1cccc2ccccc12 [JG27],1.03,–,–
c1ccc(C/N=C(\NCc2cccc3ccccc23)SCc2cccc3ccccc23)cc1 [JG28],0.39,–,–
CN/C(=N\c1cccc2cc3ccccc3cc12)SCc1cccc2ccccc12 [JG31],8.29,–,–
C/N=C(/NC)SCc1cccc2ccccc12 [SM25],0.68,1.55,Ratio IC50 (comp./990) in Screening no. 1 [1]: 0.97
N=C(N)NCc1cccc2ccccc12 [SM51],–,88.35,–
S=C(NCCN1CCCCC1)Nc1cccc2ccccc12 [SM52],–,962.65,–
N=C(NCc1ccccc1)SCc1cccc2ccccc12 [SM53],1.13,3.20,–
CCNC(=N)SCc1cccc2ccccc12 [SM54],–,6.43,–
N=C(NN)SCc1cccc2ccccc12 [SM55],–,2.45,–
S=C(NCCN1CCCCC1)NCc1cccc2ccccc12 [SM56],–,592.04,–
CNC(=S)NCc1cccc2ccccc12 [SM57],–,4.16,–
CCNC(=S)NCc1cccc2ccccc12 [SM58],–,–,"Ratio IC50 (comp./990) in Screening no. 2 ([1]; Table C, screening no. 2, relative to substance 990): 986.12"
S=C(NCc1cccc2ccccc12)NC1CCCCC1 [SM59],–,343.88,–
CN/C(=N\Cc1cccc2ccccc12)SCc1cccc2ccccc12 [SM61],0.32,0.16,Effect on AVP-induced redistribution of AQP2 [3]: inhibits the AVP-induced redistribution of AQP2
c1ccc2c(C/N=C(\NC3CCCCC3)SCc3cccc4ccccc34)cccc2c1 [SM63],1.13,0.55,–
C/N=C(/NC1=NCCS1)SCc1cccc2ccccc12 [SM65],0.39,0.14,Effect on AVP-induced redistribution of AQP2 [3]: no influence
C/N=C(/NC1=NCCS1)SCc1ccc2ccccc2c1 [SM66],–,30.29,–
C/N=C(/NCCCc1ccccc1)SCc1cccc2ccccc12 [SM67],1.10,0.51,–
C/N=C(/NCCCc1ccccc1)SCc1ccc2ccccc2c1 [SM68],–,86.51,–
C/N=C(/NC(C)c1ccccc1)SCc1cccc2ccccc12 (centres unmarked) [SM69],–,1.76,–
C/N=C(/NC(C)c1ccccc1)SCc1ccc2ccccc2c1 (centres unmarked) [SM70],–,79.84,–
C/N=C(/NCc1ccccc1)SCc1cccc2ccccc12 [SM71],0.45,0.41,–
C/N=C(/NCc1ccccc1)SCc1ccc2ccccc2c1 [SM72],–,55.39,–
